Reference: patent US20260240913A1, “METHODS FOR PRODUCING STABLE HUMAN CHONDROCTYES AND THEIR USE FOR PROMOTING CARTILLAGE GROWTH AND REPAIR” (Cambridge Enterprise Limited, priority 2023, published 2026)

Columns and labels:
hBMSC/SSC organoids = test: Pan-ID inhibition in hBMSC/SSC organoids during chondrogenic differentiation, qRT-PCR of chondro-osteogenic genes; format: cell-based, human
Method: Chondrogenic Differentiation of hBMSCs/SSC-derived Organoids: To generate control organoids, 2.5×10^5 hBMSCs/SSCs (passage 2) were suspended in 1 mL chondrogenic medium—which consisted of high glucose Dulbecco's Modified Eagle Medium (DMEM) with sodium pyruvate (ThermoFisher, Cat. No. 11995073), 1% insulin-transferrin-selenium (ThermoFisher, Cat. No. 51500056), 100 nM dexamethasone, 50 ug/mL L-ascorbic acid phosphate magnesium salt n-hydrate, 1% penicillin/streptomycin, and 10 ng/mL TGFβ1 (Peprotech, Cat. No. 100-21)—in 14 mL conical tubes. The same process was employed to generate HyA-FMB organoids, except each conical tube contained 3 mg of pre-sterilized HyA-FMBs (70% ethanol washes overnight), which were constructed according to established protocols (Kuznetsov et al., Stem Cells Translational Medicine, 26, 586-592. //doi.org/10.1016/j.joca.2018.02.293, 2019). […]
qRT-PCR. […] Lysates were processed according to Qiagen's RNeasy Mini Kit with DNAse treatment (Cat. No. 74004), and RNA quality and concentration was measured using NanoDrop. cDNA was constructed using SuperScript III First-Strand Synthesis SuperMix (ThermoFisher, Cat. No. 11752050) with no Reverse Transcriptase added to negative controls. Samples were measured in triplicate using the Quantstudio 6 Flex system (Applied Biosystems), and ΔΔCT values were calculated using GAPDH as internal controls.

hBMSC/SSC = details: chronic BMP blockade; Franco et al. 2022; cited from earlier work
Hedgehog = details: according to Wu et al. 2021; cited from earlier work
sclerotome cells = test: Chondrogenic differentiation of hiPSC-derived sclerotome cells (pellet cultures, chondrospheroids), staining and Incucyte imaging; format: cell-based, human; details: pellet cultures from all sclerotome cells; 10 ng/mL each factor; across 42 days
Method: Staining Procedure. Paraffin-embedded tissues were used for immunofluorescence. Tissues were sectioned at 7 μm and heated for 1 hour at 60° C., then rehydrated in 2 washes of xylene (5 minutes), 100% ethanol (5 minutes), 95% ethanol (5 minutes), 70% ethanol (5 minutes), and distilled water (5 minute). Two different antigen retrieval methods were used: (1) for staining with COL1A1, COL2A1, COL10A1, PRG4, and hVIMENTIN, tissues were treated with 2 mg/mL hyaluronidase/PBS solution for 1 hour at 37° C., followed by a PBS wash and treatment with Pepsin (Millipore Sigma, Cat. No. R2283) for 5-10 minutes at 37° C.; (2) for staining with MGP, COMP, DPT, ACAN, and ALPL, tissues were incubated in citrate buffer (Millipore Sigma, Cat. No. C9999) for 1 hour at 70° C., followed by a 15-second wash with distilled water. Cytofix/Cytoperm buffer (BD, Cat. No. 554722) was used in some cases to enhance intracellular staining. Tissues were blocked in staining solution—PBS supplemented with 5% donkey serum (Sigma, Cat. No. D9663) and 0.5% IgePal (Sigma, Cat. No. I3021)—for 30 minutes, then stained with primary antibodies overnight at 4° C. […]
Confocal Imaging. […] Maximum intensity projections were merged in Fiji/Image J (National Institutes of Health) for image analysis and quantifications. […]

hBMSCs/SSCs = test: scRNA-seq of hBMSC/SSC organoids with or without HyA-FMBs during chondrogenic differentiation; format: cell-based, human; details: day 10 of chondrogenic differentiation
Method: Chondrogenic Differentiation of hBMSCs/SSC-derived Organoids: To generate control organoids, 2.5×10^5 hBMSCs/SSCs (passage 2) were suspended in 1 mL chondrogenic medium—which consisted of high glucose Dulbecco's Modified Eagle Medium (DMEM) with sodium pyruvate (ThermoFisher, Cat. No. 11995073), 1% insulin-transferrin-selenium (ThermoFisher, Cat. No. 51500056), 100 nM dexamethasone, 50 ug/mL L-ascorbic acid phosphate magnesium salt n-hydrate, 1% penicillin/streptomycin, and 10 ng/mL TGFβ1 (Peprotech, Cat. No. 100-21)—in 14 mL conical tubes. […]
Control and HyA-FMB organoids from days 1-10 and ectopic HyA-FMB transplant were digested in high-glucose DMEM containing 0.2% collagenase II (ThermoFisher, Cat. No. 17101015), 0.1% hyaluronidase (Merck, Cat. No. H3506), and 0.1% dispase (Sigma, Cat. No. D4693) with gentle pipetting every 20-30 minutes. […] Only samples with >95% viability were submitted for single-cell capture, as measured by Vi-CELL BLU Cell Viability Analyzer (Beckman Coulter). […] Reads were mapped using GRCh38-2020-A reference transcriptome, and libraries were processed using Cell Ranger version 7.0. […] Differentially expressed genes, which represented at least 25% of each cluster (p<0.05), were analyzed using gProfiler (biit.cs.ut.ee/gprofiler/gost) for functional enrichment analysis and cell cluster annotation.

For `CCC(=O)N(CCC(c1ccc2c(c1)OCO2)c1ccccc1OC)Cc1ccccc1` (stereo not drawn) [AGX51], the “RUNX2, IBSP and COL1A1 (osteogenic) gene expression” value (hBMSC/SSC organoids; 30 μM AGX51 every 2-3 days for 28 days, qRT-PCR at days 3, 7, 14, 21, 28, versus vehicle) was “initial decrease in RUNX2 and IBSP expression at days 3 and 7, followed by an increase in RUNX2, IBSP, and COL1A1 expression from days 21-28” and the “chondrogenic gene expression (SOX9, ACAN, and COL2A1)” value (hBMSC/SSC organoids; 30 μM AGX51 for 28 days, qRT-PCR) was “initially decreased, but stabilized”.

For `Cl.c1ccc2c(-c3cnn4cc(-c5ccc(N6CCNCC6)cc5)cnc34)ccnc2c1` [LDN 193189, 4-(6-(4-(piperazin-1-yl)phenyl)pyrazolo[1,5-a]pyrimidin-3-yl)quinoline hydrochloride], the hypertrophic expression (hBMSC/SSC) is listed as “does not prevent hypertrophic expression”.

In the case of `c1ccc2c(Oc3nc(Nc4ccc(N5CCOCC5)cc4)c4ncn(C5CCCCC5)c4n3)cccc2c1` [purmorphamine], the “suitability as Hedgehog agonist for sclerotome induction” value (Hedgehog) is listed as “effective substitute for the commercially-synthesized Hedgehog agonist 21K”.

In the case of “TGFβ1: transforming growth factor β1, recombinant growth factor in chondrogenic medium”, the “matrix protein expression in sclerotome-derived pellet cultures” value (sclerotome cells) is reported as “stable COL1A1 and COL2A1 expression across 42 days, with sporadic ACAN and minimal PRG4 expression” and the “IBSP+ cell populations” value (hBMSCs/SSCs) is reported as “About 90%”.
